Laboratory results taken from patent US20240018133A1, “MODULATORS OF THE INTEGRATED STRESS PATHWAY” (Calico Life Sciences LLC, priority 2019, published 2024).

Tested on: ATF4 luciferase reporter (human full-length ATF4 5'-UTR fused to firefly luciferase) in HEK293T cells
Test: ATF4-Luc assay (in vitro model of VWMD): HEK293T cells carrying ATF4 luciferase reporter, tunicamycin-treated
Assay type: cell-based
Conditions: Homo sapiens, HEK-293T, 1 μg/mL tunicamycin, 7 hours, One Glo luminescence
Method: In order to test exemplary compounds of the invention in a cellular context, a stable VWMD cell line was first constructed. The ATF4 reporter was prepared by fusing the human full-length ATF4 5′-UTR (NCBI Accession No. BC022088.2) in front of the firefly luciferase (FLuc) coding sequence lacking the initiator methionine as described in Sidrauski et al (eLife 2013). The construct was used to produce recombinant retroviruses using standard methods and the resulting viral supernatant was used to transduce HEK293T cells, which were then subsequently selected with puromycin to generate a stable cell line.
HEK293T cells carrying the ATF4 luciferase reporter were plated on polylysine coated 384-well plates (Greiner Bio-one) at 30,000 cells per well. Cells were treated the next day with 1 μg/mL tunicamycin and 200 nM of a compound of Formula (I) for 7 hours. Luminescence was measured using One Glo (Promega) as specified by the manufacturer. Cells were maintained in DMEM with L-glutamine supplemented with 10% heat-inactivated FBS (Gibco) and Antibiotic-Antimycotic solution (Gibco).
Table 2 below summarizes the EC50 data obtained using the ATF4-Luc assay for exemplary compounds of the invention.

Compound	EC50 [nM]
O=C(COc1ccc(Cl)c(F)c1)NC12CC(NC(=O)C3CC(=O)c4cc(Cl)ccc4O3)(C1)C2 (centres unmarked) [Compound 186, 6-chloro-N-{3-[2-(4-chloro-3-fluorophenoxy)acetamido]bicyclo[1.1.1]pentan-1-yl}-4-oxo-3,4-dihydro-2H-1-benzopyran-2-carboxamide]	< 10
O=C(COc1ccc(Cl)c(F)c1)NC12CC(NC(=O)C3CC(NCCO)c4cc(Cl)ccc4O3)(C1)C2 (centres unmarked) [Compound 188, 6-chloro-N-{3-[2-(4-chloro-3-fluorophenoxy)acetamido]bicyclo[1.1.1]pentan-1-yl}-4-[(2-hydroxyethyl)amino]-3,4-dihydro-2H-1-benzopyran-2-carboxamide]	10 to 50
COC(C)(C)CN1C[C@@H](C(=O)NC23CC(NC(=O)COc4ccc(Cl)c(F)c4)(C2)C3)Oc2ccc(Cl)cc21 [Compound 191, (2S)-6-chloro-N-{3-[2-(4-chloro-3-fluorophenoxy)acetamido]bicyclo[1.1.1]pentan-1-yl}-4-(2-methoxy-2-methylpropyl)-3,4-dihydro-2H-1,4-benzoxazine-2-carboxamide]	500 to 2000
O=C(O)CNC1CC(C(=O)NC23CC(NC(=O)COc4ccc(Cl)c(F)c4)(C2)C3)Oc2ccc(Cl)cc21 (centres unmarked) [Compound 192, {[6-chloro-2-({3-[2-(4-chloro-3-fluorophenoxy)acetamido]bicyclo[1.1.1]pentan-1-yl}carbamoyl)-3,4-dihydro-2H-1-benzopyran-4-yl]amino}acetic acid]	500 to 2000
O=C(COc1ccc(Cl)c(F)c1)NC12CC(NC(=O)[C@@H]3C[C@H](O)c4cc(Cl)ccc4O3)(C1)C2 [Compound 195, (2S,4S)-6-chloro-N-{3-[2-(4-chloro-3-fluorophenoxy)acetamido]bicyclo[1.1.1]pentan-1-yl}-4-hydroxy-3,4-dihydro-2H-1-benzopyran-2-carboxamide]	< 10
O=C(COc1ccc(Cl)c(F)c1)NC12CC(NC(=O)[C@H]3C[C@@H](O)c4cc(Cl)ccc4O3)(C1)C2 [Compound 196, (2R,4R)-6-chloro-N-{3-[2-(4-chloro-3-fluorophenoxy)acetamido]bicyclo[1.1.1]pentan-1-yl}-4-hydroxy-3,4-dihydro-2H-1-benzopyran-2-carboxamide]	< 10
O=C(COc1ccc(Cl)c(F)c1)NC12CC(NC(=O)[C@H]3C[C@H](O)c4cc(Cl)ccc4O3)(C1)C2 [Compound 197, (2R,4S)-6-chloro-N-{3-[2-(4-chloro-3-fluorophenoxy)acetamido]bicyclo[1.1.1]pentan-1-yl}-4-hydroxy-3,4-dihydro-2H-1-benzopyran-2-carboxamide]	< 10
O=C(COc1ccc(Cl)c(F)c1)NC12CC(NC(=O)[C@@H]3C[C@@H](O)c4cc(Cl)ccc4O3)(C1)C2 [Compound 198, (2S,4R)-6-chloro-N-{3-[2-(4-chloro-3-fluorophenoxy)acetamido]bicyclo[1.1.1]pentan-1-yl}-4-hydroxy-3,4-dihydro-2H-1-benzopyran-2-carboxamide]	< 10
O=C(COc1ccc(Cl)c(F)c1)NC12CCC(NC(=O)C3CC(=O)c4cc(Cl)ccc4O3)(CC1)C[C@@H]2O (stereo partly drawn) [Compound 199C, 6-chloro-N-{(3S)-4-[2-(4-chloro-3-fluorophenoxy)acetamido]-3-hydroxybicyclo[2.2.2]octan-1-yl}-4-oxo-3,4-dihydro-2H-1-benzopyran-2-carboxamide]	< 10
O=C(COc1ccc(Cl)c(Cl)c1)NC12CC(NC(=O)[C@H]3C[C@@H](O)c4cc(F)c(F)cc4O3)(C1)C2 [Compound 207, (2R,4R)—N-{3-[2-(3,4-dichlorophenoxy)acetamido]bicyclo[1.1.1]pentan-1-yl}-6,7-difluoro-4-hydroxy-3,4-dihydro-2H-1-benzopyran-2-carboxamide]	< 10
O=C(COc1ccc(Cl)c(Cl)c1)NC12CC(NC(=O)[C@H]3CC(=O)c4cc(F)c(F)cc4O3)(C1)C2 [Compound 207E, (2R)—N-{3-[2-(3,4-dichlorophenoxy)acetamido]bicyclo[1.1.1]pentan-1-yl}-6,7-difluoro-4-oxo-3,4-dihydro-2H-1-benzopyran-2-carboxamide]	< 10
